From paper PMC10893631, “Receptor-based pharmacophore modeling, molecular docking, synthesis and biological evaluation of novel VEGFR-2, FGFR-1, and BRAF multi-kinase inhibitors” (BMC Chemistry, 2024)

Experiments:
Experiment in all cases: NCI SRB growth inhibition (single dose 10 µM / five-dose)
Format in all cases: cell-based, human
786–0 = conditions: Homo sapiens; 786–0 (Renal cancer), 10 µM; read-out: GI%
Method: (§1) Screening of cytotoxic activity against a panel of sixty human tumor cell lines The selected compounds by NCI were evaluated for their anticancer activity in a two- stage process. […] Then, the output from the single dose screen is reported as a mean graph. […] Assay protocol. […] For a typical screening experiment, cells are inoculated into 96 well microtiter plates in 100 µL at plating densities ranging from 5000 to 40,000 cells/well depending on the doubling time of individual cell lines. […] After 24 h, two plates of each cell line are fixed in situ with TCA, to represent a measurement of the cell population for each cell line at the time of drug addition (Tz). The experimental drugs are solubilized in dimethyl sulfoxide at 400-fold the desired final maximum test concentration and stored frozen prior to use. At the time of drug addition, an aliquot of frozen concentrate is thawed and diluted to twice the desired final maximum test concentration with complete medium containing 50 µg/mL gentamicin. Additional four, 10-fold or ½ log serial dilutions are made to provide a total of five drug concentrations plus control. Aliquots of 100 mL of these different drug dilutions are added to the appropriate microtiter wells already containing […] of medium, resulting in the required final drug concentrations. […] For adherent cells, the assay is terminated by the addition of cold TCA. […] The supernatant is discarded, and the plates are washed five times with tap water and air dried. Sulforhodamine B (SRB) solution ([…]) at 0.4% (w/v) in 1% acetic acid is added to each well, and plates are incubated for 10 min at room temperature. After staining, unbound dye is removed by washing five times with 1% acetic acid and the plates are air dried. […] Using the seven absorbance measurements [time zero, (Tz), control growth, (C), and test growth in the presence of drug at the five concentration levels (Ti)], the percentage growth is calculated at each of the drug concentrations levels. Percentage growth inhibition is calculated as: [(Ti Tz)/(C–Tz)] x 100 for concentrations for which Ti>/=Tz and [(Ti-Tz)/Tz] x 100 for concentrations for which Ti < Tz. Three dose response parameters are calculated for each experimental agent. […] The drug concentration resulting in total growth inhibition (TGI) is calculated from Ti = Tz. […] Values are calculated for each of these three parameters if the level of activity is reached; however, if the effect is not reached or is exceeded, the value for that parameter is expressed as greater or less than the maximum or minimum concentration tested.

ACHN = conditions: Homo sapiens; ACHN (Renal cancer), 10 µM; read-out: GI%
Method: as §1

BT-549 = conditions: Homo sapiens; BT-549 (Breast cancer), 10 µM; read-out: GI%
Method: as §1

COLO 205 = conditions: Homo sapiens; COLO 205 (Colon cancer), 10 µM; read-out: GI%
Method: as §1

EKVX = conditions: Homo sapiens; EKVX (Non-small cell lung cancer), 10 µM; read-out: GI%
Method: as §1

HOP-62 = conditions: Homo sapiens; HOP-62 (Non-small cell lung cancer), 10 µM; read-out: GI%
Method: as §1

HT29 = conditions: Homo sapiens, HT-29; HT29 (Colon cancer), 10 µM; read-out: GI%
Method: as §1

IGROV1 = conditions: Homo sapiens, IGROV-1; IGROV1 (Ovarian cancer), 10 µM; read-out: GI%
Method: as §1

K-562 = conditions: Homo sapiens, K562; K-562 (Leukemia), 10 µM; read-out: GI%
Method: as §1

KM12 = conditions: Homo sapiens; KM12 (Colon cancer), 10 µM; read-out: GI%
Method: as §1

MDA-MB-231/ATCC = conditions: Homo sapiens; MDA-MB-231/ATCC (Breast cancer), 10 µM; read-out: GI%
Method: as §1

MDA-MB-468 = conditions: Homo sapiens; MDA-MB-468 (Breast cancer), 10 µM; read-out: GI%
Method: as §1

NCI-H226 = conditions: Homo sapiens; NCI-H226 (Non-small cell lung cancer), 10 µM; read-out: GI%
Method: as §1

NCI-H23 = conditions: Homo sapiens; NCI-H23 (Non-small cell lung cancer), 10 µM; read-out: GI%
Method: as §1

NCI-H522 = conditions: Homo sapiens; NCI-H522 (Non-small cell lung cancer), 10 µM; read-out: GI%
Method: as §1

NCI/ADR-RES = conditions: Homo sapiens; NCI/ADR-RES (Ovarian cancer), 10 µM; read-out: GI%
Method: as §1

RPMI-8226 = conditions: Homo sapiens; RPMI-8226 (Leukemia), 10 µM; read-out: GI%
Method: as §1

SF-268 = conditions: Homo sapiens; SF-268 (CNS cancer), 10 µM; read-out: GI%
Method: as §1

SK-MEL-2 = conditions: Homo sapiens; SK-MEL-2 (Melanoma), 10 µM; read-out: GI%
Method: as §1

SK-MEL-5 = conditions: Homo sapiens; SK-MEL-5 (Melanoma), 10 µM; read-out: GI%
Method: as §1

SNB-19 = conditions: Homo sapiens; SNB-19 (CNS cancer), 10 µM; read-out: GI%
Method: as §1

SNB-75 = conditions: Homo sapiens; SNB-75 (CNS cancer), 10 µM; read-out: GI%
Method: as §1

SR = conditions: Homo sapiens; SR (Leukemia), 10 µM; read-out: GI%
Method: as §1

TK-10 = conditions: Homo sapiens; TK-10 (Renal cancer), 10 µM; read-out: GI%
Method: as §1

UACC-257 = conditions: Homo sapiens; UACC-257 (Melanoma), 10 µM; read-out: GI%
Method: as §1

SMILES	inhibition at 10 µM (786–0) [%]	inhibition at 10 µM (ACHN) [%]	inhibition at 10 µM (BT-549) [%]	inhibition at 10 µM (COLO 205) [%]	inhibition at 10 µM (EKVX) [%]	inhibition at 10 µM (HOP-62) [%]	inhibition at 10 µM (HT29) [%]	inhibition at 10 µM (IGROV1) [%]	inhibition at 10 µM (K-562) [%]	inhibition at 10 µM (KM12) [%]	inhibition at 10 µM (MDA-MB-231/ATCC) [%]	inhibition at 10 µM (MDA-MB-468) [%]	inhibition at 10 µM (NCI-H226) [%]	inhibition at 10 µM (NCI-H23) [%]	inhibition at 10 µM (NCI-H522) [%]	inhibition at 10 µM (NCI/ADR-RES) [%]	inhibition at 10 µM (RPMI-8226) [%]	inhibition at 10 µM (SF-268) [%]	inhibition at 10 µM (SK-MEL-2) [%]	inhibition at 10 µM (SK-MEL-5) [%]	also measured
O=C(NN=Cc1cccc(O)c1)c1ccc2[nH]c(-c3ccccc3)nc2c1 [8b, N'-(3-Hydroxybenzylidene)-2-phenyl-1H-benzo[d]imidazole-5-carbohydrazide]	5.43	< 5	< 5	< 5	13.8	19.3	16.4	13	21.4	19.8	14.1	18.9	< 5	< 5	38.1	< 5	9.59	16.8	< 5	10.9	inhibition at 10 µM (SNB-19): < 5%; inhibition at 10 µM (SNB-75): 6.56%; inhibition at 10 µM (SR): 36.8%; inhibition at 10 µM (TK-10): < 5%; inhibition at 10 µM (UACC-257): < 5%
COc1cccc(C=NNC(=O)c2ccc3[nH]c(-c4ccccc4)nc3c2)c1 [8c, N'-(3-Methoxybenzylidene)-2-phenyl-1H-benzo[d]imidazole-5-carbohydrazide]	21.3	< 5	< 5	32.6	41.8	15.4	33.9	10.1	41.7	26	< 5	22.7	19.3	9.68	26	6.59	81.6	15.1	19.5	39	inhibition at 10 µM (SNB-19): < 5%; inhibition at 10 µM (SNB-75): 11%; inhibition at 10 µM (SR): 36.3%; inhibition at 10 µM (TK-10): < 5%; inhibition at 10 µM (UACC-257): 14.6%
COc1ccc(C=NNC(=O)c2ccc3[nH]c(-c4ccccc4)nc3c2)cc1O [8e, N'-(3-Hydroxy-4-methoxybenzylidene)-2-phenyl-1H-benzo[d]imidazole-5-carbohydrazide]	16.6	< 5	< 5	35.4	19.2	21.4	95.8	22	26.2	21.9	< 5	7.65	11.4	< 5	29.4	< 5	23.4	16	8.51	39.5	inhibition at 10 µM (SNB-19): < 5%; inhibition at 10 µM (SNB-75): < 5%; inhibition at 10 µM (SR): 44.1%; inhibition at 10 µM (TK-10): < 5%; inhibition at 10 µM (UACC-257): 13.8%
O=C(NN=Cc1cccc(O)c1)c1ccc2[nH]c(-c3ccc(Cl)cc3)nc2c1 [8p, 2-(4-Chlorophenyl)-N'-(3-hydroxybenzylidene)-1H-benzo[d]imidazole-5-carbohydrazide]	22.2	< 5	< 5	34.6	7.59	32.5	19.9	5.71	49.9	62.7	45.2	65.8	30.1	56.6	55.8	< 5	56.7	24.2	24	69.5	inhibition at 10 µM (SNB-75): 7.89%; inhibition at 10 µM (SR): 26.4%; inhibition at 10 µM (TK-10): < 5%; inhibition at 10 µM (UACC-257): < 5%
